For one assay, the system named is HCC827/ER cells. Kind of assay: Cell viability assay (CellTiter-Glo 2.0), erlotinib-resistant HCC827/ER cells. The assay is classed as cell-based, human. The conditions noted are these: Homo sapiens, HCC827ER, read-out: Relative cell viability. An excerpt:
(§1) To explore c-MET and AXL mechanisms of EGFR TKI resistance, resistant cells of the EGFR TKI hypersensitive EGFR exon 19 mutant NSCLC cell line, HCC827 and PC9 were generated by exposing these cells to increasing concentrations of EGFR TKI for over 3 months.
(§2) Gefitinib-resistant cells were referred to as HCC827/GR. […] Osimertinib-resistant cells were referred to as HCC827/OR.
Background: In ATP-based viability assays light output follows the ATP content of the culture.

In the next assay the test system is HCC827/GR cells. Nature of the assay: Cell viability assay (CellTiter-Glo 2.0), gefitinib-resistant HCC827/GR cells. Type of assay: cell-based, human. The settings on record: Homo sapiens, HCC827, 72 h drug treatment, read-out: Relative cell viability, IC50 HCC827GR. A digest of the protocol:
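Gefitinib-resistant HCC827 cells, derived by over 3 months' escalating EGFR TKI exposure, seeded at 1,000 cells/well. Treated 72 h with a 10-point dose range from 1 nM to 10,000 nM. Viability read by CellTiter-Glo 2.0 luminescence.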

A further assay concerns HCC827/OR cells. Kind of assay: Cell viability assay (CellTiter-Glo 2.0), osimertinib-resistant HCC827/OR cells. The assay is classed as cell-based, human. The conditions noted are these: Homo sapiens, HCC827, 72 h drug treatment, read-out: Relative cell viability, IC50 HCC827OR.
Description: as §1, §2

For a further assay, the system named is PC9/ER cells. Nature of the assay: Cell viability assay (CellTiter-Glo 2.0), erlotinib-resistant PC9/ER cells. Type of assay: cell-based. The settings on record: Homo sapiens, PC-9/ER, 72 h drug treatment, read-out: Relative cell viability, IC50 PC9ER.
Description: as §1, §2

Where [1] appears, read: Table 2, 72 h drug treatment, EGFR TKI resistant cells, combination with EGFR TKI.
The mark [2] stands for this setting: Table 2, EGFR TKI resistant cells, combination with EGFR TKI.
[3] abbreviates: Table 4, 72 h drug treatment, combinations of EGFR TKIs and inhibitor of Formula (I).
[4] abbreviates: Table 4, combinations of EGFR TKIs and inhibitor of Formula (I).

Read-outs that look alike come from different tables or passages of the source.

As for `COCCN1CCN(C(C)(C)C#Cc2c(Oc3ccc(NC(=O)c4cn(C(C)C)c(=O)n(-c5ccc(F)cc5)c4=O)cc3F)ccnc2N)CC1` [Example 20, N-(4-(2-amino-3-(3-(4-(2-methoxyethyl)piperazin-1-yl)-3-methylbut-1-ynyl)pyridin-4-yloxy)-3-fluorophenyl)-3-(4-fluorophenyl)-1-isopropyl-2,4-dioxo-1,2,3,4-tetrahydropyrimidine-5-carboxamide], the IC50 with HCC827/ER cells (setting [1]), with HCC827/GR cells (setting [2]), in the assay with HCC827/OR cells (setting [2]) and in the assay with PC9/ER cells (setting [2]) was less than 10 nM throughout.

In the case of `CCCn1cc(C#Cc2c(Oc3ccc(NC(=O)c4cn(C(C)C)c(=O)n(-c5ccc(F)cc5)c4=O)cc3F)ccnc2N)cn1` [Example 13, N-(4-(2-amino-3-((1-propyl-1H-pyrazol-4-yl)ethynyl)pyridin-4-yloxy)-3-fluorophenyl)-3-(4-fluorophenyl)-1-isopropyl-2,4-dioxo-1,2,3,4-tetrahydropyrimidine-5-carboxamide], the IC50 in the assay on HCC827/ER cells (setting [1]), in the assay on HCC827/GR cells (setting [2]), with HCC827/OR cells (setting [2]) and in the assay with PC9/ER cells (setting [2]) was less than 10 nM each time.

Consider `CC(C)n1cc(C(=O)Nc2ccc(Oc3ccnc(N)c3C#Cc3ccccn3)c(F)c2)c(=O)n(-c2ccc(F)cc2)c1=O` [Example 9, N-(4-(2-amino-3-(pyridin-2-ylethnyl)pyridin-4-yloxy)-3-fluorophenyl)-3-(4-fluorophenyl)-1-isopropyl-2,4-dioxo-1,2,3,4-tetrahydropyrimidine-5-carboxamide], for which the IC50 is less than 100 nM in the assay with HCC827/ER cells (setting [1]), less than 100 nM with HCC827/GR cells (setting [2]), less than 100 nM in the assay on HCC827/OR cells (setting [2]) and greater than 10000 nM in the assay with PC9/ER cells (setting [2]).

Regarding `C=CCn1cc(C(=O)Nc2ccc(Oc3ccnc(N)c3C#CCN3CCOCC3)c(F)c2)c(=O)n(CC=C)c1=O` [Example 67, 1,3-diallyl-N-(4-(2-amino-3-(3-morpholinoprop-1-ynyl)pyridin-4-yloxy)-3-fluorophenyl)-2,4-dioxo-1,2,3,4-tetrahydropyrimidine-5-carboxamide], the IC50 with HCC827/ER cells (setting [3]) was less than 100 nM; with HCC827/GR cells (setting [4]), less than 100 nM; in the assay on HCC827/OR cells (setting [4]) it was less than 1000 nM; in the assay with PC9/ER cells (setting [4]) it was less than 1000 nM.

Take `CC(C)n1cc(C(=O)Nc2ccc(Oc3ccnc(N)c3C#CCN3CCNCC3)c(F)c2)c(=O)n(-c2ccc(F)cc2)c1=O` [Example 17]: the IC50 with HCC827/ER cells (setting [1]), in the assay with HCC827/GR cells (setting [2]), in the assay on HCC827/OR cells (setting [2]) and in the assay on PC9/ER cells (setting [2]) was less than 100 nM throughout.

For the compound `CC(C)n1cc(C(=O)Nc2ccc(Oc3ccnc(N)c3C#CC(=O)N3CCOCC3)c(F)c2)c(=O)n(-c2ccc(F)cc2)c1=O` [Example 14, N-(4-(2-amino-3-(3-morpholino-3-oxoprop-1-ynyl)pyridin-4-yloxy)-3-fluorophenyl)-3-(4-fluorophenyl)-1-isopropyl-2,4-dioxo-1,2,3,4-tetrahydropyrimidine-5-carboxamide], the IC50 was less than 10 nM with HCC827/ER cells (setting [1]), less than 100 nM in the assay with HCC827/GR cells (setting [2]), less than 10 nM in the assay on HCC827/OR cells (setting [2]) and less than 10 nM with PC9/ER cells (setting [2]).

Take `CN1CCN(C(C)(C)C#Cc2c(Oc3ccc(NC(=O)c4cn(CC(=O)N(C)C)c(=O)n(-c5ccc(F)cc5)c4=O)cc3F)ccnc2N)CC1` [Example 36, N-(4-((2-amino-3-(3-methyl-3-(4-methylpiperazin-1-yl)but-1-yn-1-yl)pyridin-4-yl)oxy)-3-fluorophenyl)-1-(2-(dimethylamino)-2-oxoethyl)-3-(4-fluorophenyl)-2,4-dioxo-1,2,3,4-tetrahydropyrimidine-5-carboxamide]: the IC50 with HCC827/ER cells (setting [3]), in the assay with HCC827/GR cells (setting [4]), in the assay on HCC827/OR cells (setting [4]) and with PC9/ER cells (setting [4]) was less than 10000 nM throughout.

Take `CC(C)n1cc(C(=O)Nc2ccc(Oc3ccnc(N)c3C#CCN3CCN(C)CC3)c(F)c2)c(=O)n(-c2ccc(F)cc2)c1=O` [Example 26, N-(4-(2-amino-3-(3-(4-methylpiperazin-1-yl)prop-1-ynyl)pyridine-4-yloxy)-3-fluorophenyl)-3-(4-fluorophenyl)-1-isopropyl-2,4-dioxo-1,2,3,4-tetrahydropyrimidine-5-carboxamide]: the IC50 is less than 10 nM in the assay with HCC827/ER cells (setting [1]), less than 100 nM with HCC827/GR cells (setting [2]), less than 10 nM in the assay with HCC827/OR cells (setting [2]) and less than 1000 nM in the assay with PC9/ER cells (setting [2]).

As for `Cc1nc(Cn2cc(C(=O)Nc3ccc(Oc4ccnc(N)c4C#CCC4CCN(C)CC4)c(F)c3)c(=O)n(-c3ccc(F)cc3)c2=O)cs1` [Example 43, N-(4-((2-amino-3-(3-(1-methylpiperidin-4-yl)prop-1-yn-1-yl)pyridin-4-yl)oxy)-3-fluorophenyl)-3-(4-fluorophenyl)-1-((2-methylthiazol-4-yl)methyl)-2,4-dioxo-1,2,3,4-tetrahydropyrimidine-5-carboxamide], the IC50 with HCC827/ER cells (setting [3]) is less than 100 nM; with HCC827/GR cells (setting [4]), less than 100 nM; in the assay on HCC827/OR cells (setting [4]), less than 1000 nM; with PC9/ER cells (setting [4]), less than 100 nM.

Take `CC(C)n1cc(C(=O)Nc2ccc(Oc3ccnc(N)c3C#N)c(F)c2)c(=O)n(-c2ccc(F)cc2)c1=O` [Example 5, N-(4-(2-amino-3-cyanopyridin-4-yloxy)-3-fluorophenyl)-3-(4-fluorophenyl)-1-isopropyl-2,4-dioxo-1,2,3,4-tetrahydropyrimidine-5-carboxamide]: the IC50 in the assay with HCC827/ER cells (setting [1]) is less than 10 nM; with HCC827/GR cells (setting [2]), less than 100 nM; in the assay on HCC827/OR cells (setting [2]), less than 100 nM; with PC9/ER cells (setting [2]), less than 1000 nM.

Regarding `CC(C)n1cc(C(=O)Nc2ccc(Oc3ccnc(N)c3C#CC(C)(C)N3CCOCC3)c(F)c2)c(=O)n(-c2ccc(F)cc2)c1=O` [Example 25, N-(4-(2-amino-3-(3-methyl-3-morpholinobut-1-ynyl)pyridin-4-yloxy)-3-fluorophenyl)-3-(4-fluorophenyl)-1-isopropyl-2,4-dioxo-1,2,3,4-tetrahydropyrimidine-5-carboxamide], the IC50 in the assay with HCC827/ER cells (setting [1]), with HCC827/GR cells (setting [2]), with HCC827/OR cells (setting [2]) and in the assay on PC9/ER cells (setting [2]) was less than 10 nM each time.

In the case of `CC(C)n1cc(C(=O)Nc2ccc(Oc3ccnc(N)c3C#CCN3CCOCC3)c(F)c2)c(=O)n(-c2ccc(F)cc2)c1=O` [Example 24, N-(4-(2-amino-3-(3-morpholinoprop-1-ynyl)pyridin-4-yloxy)-3-fluorophenyl)-3-(4-fluorophenyl)-1-isopropyl-2,4-dioxo-1,2,3,4-tetrahydropyrimidine-5-carboxamide], the IC50 with HCC827/ER cells (setting [1]), in the assay on HCC827/GR cells (setting [2]), in the assay with HCC827/OR cells (setting [2]) and in the assay on PC9/ER cells (setting [2]) was less than 10 nM in each case.

For `CN1CCC(CC#Cc2c(Oc3ccc(NC(=O)c4nn(C)c(=O)n(-c5ccc(F)cc5)c4=O)cc3F)ccnc2N)CC1` [Example 45, N-(4-((2-amino-3-(3-(1-methylpiperidin-4-yl)prop-1-yn-1-yl)pyridin-4-yl)oxy)-3-fluorophenyl)-4-(4-fluorophenyl)-2-methyl-3,5-dioxo-2,3,4,5-tetrahydro-1,2,4-triazine-6-carboxamide], the IC50 in the assay on HCC827/ER cells (setting [3]) is less than 1000 nM; with HCC827/GR cells (setting [4]), less than 1000 nM; in the assay on HCC827/OR cells (setting [4]), less than 10000 nM; in the assay with PC9/ER cells (setting [4]), less than 1000 nM.

As for `CC(C)n1cc(C(=O)Nc2ccc(Oc3ccnc(N)c3-c3ccccc3)c(F)c2)c(=O)n(-c2ccc(F)cc2)c1=O` [Example 22, N-(4-(2-amino-3-phenylpyridin-4-yloxy)-3-fluorophenyl)-3-(4-fluorophenyl)-1-isopropyl-2,4-dioxo-1,2,3,4-tetrahydropyrimidine-5-carboxamide], the IC50 is less than 100 nM with HCC827/ER cells (setting [1]), less than 10 nM with HCC827/GR cells (setting [2]), less than 100 nM in the assay with HCC827/OR cells (setting [2]) and less than 100 nM with PC9/ER cells (setting [2]).

As for `Cc1nc(Cn2cc(C(=O)Nc3ccc(Oc4ccnc(N)c4C#CCC4CCNCC4)c(F)c3)c(=O)n(-c3ccc(F)cc3)c2=O)cs1` [Example 44, N-(4-((2-amino-3-(3-(piperidin-4-yl)prop-1-yn-1-yl)pyridin-4-yl)oxy)-3-fluorophenyl)-3-(4-fluorophenyl)-1-((2-methylthiazol-4-yl)methyl)-2,4-dioxo-1,2,3,4-tetrahydropyrimidine-5-carboxamide], the IC50 in the assay with HCC827/ER cells (setting [3]) was less than 1000 nM; with HCC827/GR cells (setting [4]), less than 100 nM; with HCC827/OR cells (setting [4]), less than 1000 nM; in the assay with PC9/ER cells (setting [4]) it was less than 1000 nM.

The values above are taken from US12421207B2 (CMG Pharmaceutical Co., Ltd., priority 2022, dated 2025).
